In patent EP4678638A1, “NEW E3 UBIQUITIN LIGASE LIGAND, PROTEIN DEGRADATION AGENT AND USE THEREOF” (priority 2023, dated 2024):

Tests used:
RSK2 = target: T1, RSK2 (Homo sapiens, UniProt P51812); assay: Western blot degradation of RSK2 (hPBMC); format: cell-based; settings: Table D8
T1 construct: evaluate the effects of the compounds of the present disclosure on the expression of target proteins in cells; endogenous in cells; host or cells: hPBMC
Summary of the method: (§1)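 After compound exposure, cells were harvested and lysates run on SDS-PAGE, transferred to nitrocellulose and probed with antibodies. Remaining target (%) was computed from band grayscale relative to an internal control protein and normalised; degradation (%) was 100% minus that.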

RSK1 = target: T2, RSK1 (Homo sapiens, UniProt Q15418); assay: Western blot degradation of RSK1 (hPBMC); format: cell-based; settings: Table D8
T2 construct: evaluate the effects of the compounds of the present disclosure on the expression of target proteins in cells; endogenous in cells; host or cells: hPBMC
T2 sequence (Q15418 whole entry): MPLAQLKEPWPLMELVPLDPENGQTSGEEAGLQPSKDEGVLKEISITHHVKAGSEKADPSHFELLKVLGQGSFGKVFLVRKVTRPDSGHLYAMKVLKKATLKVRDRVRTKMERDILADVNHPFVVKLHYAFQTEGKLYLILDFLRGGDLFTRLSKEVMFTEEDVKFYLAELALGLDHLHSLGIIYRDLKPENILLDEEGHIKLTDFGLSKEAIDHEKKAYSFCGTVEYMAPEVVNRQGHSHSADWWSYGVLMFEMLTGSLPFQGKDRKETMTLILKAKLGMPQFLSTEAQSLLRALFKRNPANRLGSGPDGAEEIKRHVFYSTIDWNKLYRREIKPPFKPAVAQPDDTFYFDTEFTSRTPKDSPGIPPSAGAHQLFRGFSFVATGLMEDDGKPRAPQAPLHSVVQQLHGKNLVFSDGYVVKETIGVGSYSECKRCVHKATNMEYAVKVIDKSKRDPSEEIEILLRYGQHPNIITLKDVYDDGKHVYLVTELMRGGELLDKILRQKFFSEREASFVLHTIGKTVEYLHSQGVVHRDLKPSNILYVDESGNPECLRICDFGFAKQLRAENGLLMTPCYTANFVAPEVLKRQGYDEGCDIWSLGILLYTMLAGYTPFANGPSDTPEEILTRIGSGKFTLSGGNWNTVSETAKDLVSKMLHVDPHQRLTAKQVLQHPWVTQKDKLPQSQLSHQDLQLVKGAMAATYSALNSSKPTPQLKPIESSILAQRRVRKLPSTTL
Summary of the method: as §1

T1 sequence (P51812 whole entry): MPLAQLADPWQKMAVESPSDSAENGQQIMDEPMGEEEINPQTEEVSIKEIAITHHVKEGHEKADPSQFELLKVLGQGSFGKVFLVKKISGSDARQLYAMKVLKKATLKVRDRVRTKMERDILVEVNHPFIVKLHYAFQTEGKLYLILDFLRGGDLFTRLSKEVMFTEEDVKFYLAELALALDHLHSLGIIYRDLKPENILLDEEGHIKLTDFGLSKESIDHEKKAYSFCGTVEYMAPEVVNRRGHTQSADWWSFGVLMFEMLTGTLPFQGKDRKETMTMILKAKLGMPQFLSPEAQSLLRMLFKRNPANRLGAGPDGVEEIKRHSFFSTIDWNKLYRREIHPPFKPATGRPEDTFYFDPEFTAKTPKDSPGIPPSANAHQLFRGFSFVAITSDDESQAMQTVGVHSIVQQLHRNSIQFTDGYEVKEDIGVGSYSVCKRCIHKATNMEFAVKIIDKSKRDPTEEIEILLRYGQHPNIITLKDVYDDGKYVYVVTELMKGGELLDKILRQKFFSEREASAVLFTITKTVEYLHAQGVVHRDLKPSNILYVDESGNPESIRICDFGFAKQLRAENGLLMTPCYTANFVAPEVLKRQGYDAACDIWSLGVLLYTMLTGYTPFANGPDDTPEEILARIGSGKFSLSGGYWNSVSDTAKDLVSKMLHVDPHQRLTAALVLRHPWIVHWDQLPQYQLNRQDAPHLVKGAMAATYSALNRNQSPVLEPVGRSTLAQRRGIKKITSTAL

SMILES | Degradation of substrate protein RSK2 (substrate protein remaining %) (RSK2) | Degradation of substrate protein RSK1 (substrate protein remaining %) (RSK1)
C[C@@H]1CNC(=O)c2cc3ccc(C(=O)Nc4cnn(Cc5ccc(N6CCC(N(C)Cc7ccc(N8CCC(=O)NC8=O)cn7)CC6)cc5)c4)nc3n21 [GT-07940, (R)-N-(1-(4-(4-(((5-(2,4-dioxotetrahydropyrimidin-1(2H)-yl)pyridin-2-yl)methyl)(methyl)amino)piperidin-1-yl)benzyl)-1H-pyrazol-4-yl)-9-methyl-6-oxo-6,7,8,9-tetrahydropyrido[3',2':4,5]py rrolo[1,2-a]pyrazine-2-carboxamide] | A (A is defined as 0% ≤ substrate protein remaining % ≤ 80%) | A (A is defined as 0% ≤ substrate protein remaining % ≤ 80%)
C[C@@H]1CNC(=O)c2cc3ccc(C(=O)Nc4cnn(Cc5ccc(N6CCN(Cc7cc(N8CCC(=O)NC8=O)ncc7F)CC6)cc5)c4)nc3n21 [GT-07797, (R)-N-(1-(4-(4-((2-(2,4-dioxotetrahydropyrimidin-1(2H)-yl)-5-fluoropyridin-4-yl)methyl)piperazin-1-yl)benzyl)-1H-pyrazol-4-yl)-9-methyl-6-oxo-6,7,8,9-tetrahydropyrido[3',2':4,5]py rrolo[1,2-a]pyrazine-2-carboxamide] | A (A is defined as 0% ≤ substrate protein remaining % ≤ 80%) | A (A is defined as 0% ≤ substrate protein remaining % ≤ 80%)
C[C@@H]1CNC(=O)c2cc3ccc(C(=O)Nc4cnn(Cc5ccc(N6CCC(N(C)Cc7ccc(N8CCC(=O)NC8=O)cc7)CC6)cc5)c4)nc3n21 [GT-07938, (R)-N-(1-(4-(4-((4-(2,4-dioxotetrahydropyrimidin-1(2H)-yl)benzyl)(methyl)amino)piperidin-1-yl)benzyl)-1H-pyrazol-4-yl)-9-methyl-6-oxo-6,7,8,9-tetrahydropyrido[3',2':4,5]py rrolo[1,2-a]pyrazine-2-carboxamide] | B (B is defined as substrate protein remaining % > 80%) | A (A is defined as 0% ≤ substrate protein remaining % ≤ 80%)
C[C@@H]1CNC(=O)c2cc3ccc(C(=O)Nc4cnn(Cc5ccc(N6CCC(N7CCN(Cc8cc(N9CCC(=O)NC9=O)ncc8F)CC7)CC6)cc5)c4)nc3n21 [GT-07957, (R)-N-(1-(4-(4-(4-((2-(2,4-dioxotetrahydropyrimidin-1(2H)-yl)-5-fluoropyridin-4-yl)methyl)piperazin-1-yl)piperidin-1-yl)benzyl)-1H-pyrazol-4-yl)-9-methyl-6-oxo-6,7,8,9-tetrahydropyrido[3',2':4,5]pyrrolo[1,2-a]pyrazine-2-carboxamide] | A (A is defined as 0% ≤ substrate protein remaining % ≤ 80%) | A (A is defined as 0% ≤ substrate protein remaining % ≤ 80%)
C[C@@H]1CNC(=O)c2cc3ccc(C(=O)Nc4cnn(Cc5ccc(N6CCN(Cc7cccc(NC8CCC(=O)NC8=O)c7)CC6)cc5)c4)nc3n21 (stereo partly drawn) [GT-07931, (9R)-N-(1-(4-(4-(3-((2,6-dioxopiperidin-3-yl)amino)benzyl)piperazin-1-yl)benzyl)-1H-pyrazol-4-yl)-9-methyl-6-oxo-6,7,8,9-tetrahydropyrido[3',2':4,5]py rrolo[1,2-a]pyrazine-2-carboxamide] | A (A is defined as 0% ≤ substrate protein remaining % ≤ 80%) | A (A is defined as 0% ≤ substrate protein remaining % ≤ 80%)
